The record followed here is patent publication US20180215769A1, “POLYCYCLIC-CARBAMOYLPYRIDONE COMPOUNDS AND THEIR PHARMACEUTICAL USE” (priority 2012, published 2018).

Type in all cases: cell-based
The target in one data set is T1, human PXR (Homo sapiens, UniProt O75469).
T1 construct: expressed in transfected cells; host or cells: DPX2 (stably transformed tumor cell line)
T1 sequence (O75469 1-434): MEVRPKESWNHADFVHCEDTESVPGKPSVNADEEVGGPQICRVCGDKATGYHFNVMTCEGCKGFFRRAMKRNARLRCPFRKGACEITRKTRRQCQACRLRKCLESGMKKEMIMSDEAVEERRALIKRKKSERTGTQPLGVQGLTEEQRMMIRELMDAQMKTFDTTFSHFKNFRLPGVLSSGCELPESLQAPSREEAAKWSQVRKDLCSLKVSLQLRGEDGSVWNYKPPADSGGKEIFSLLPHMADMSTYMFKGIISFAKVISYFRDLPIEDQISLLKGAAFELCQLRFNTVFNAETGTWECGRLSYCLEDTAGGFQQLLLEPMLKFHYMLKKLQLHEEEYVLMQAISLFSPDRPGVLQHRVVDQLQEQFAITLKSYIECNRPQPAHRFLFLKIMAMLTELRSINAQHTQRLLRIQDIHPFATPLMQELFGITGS
The data set is described as follows: Human PXR activation assay, luciferase reporter gene in DPX2 cells. Conditions: 24 hr, relative to maximum fold induction by 10 or 20 uM rifampicin. The protocol:
(§1) Luciferase Reporter Gene Assay.
(§2) A stably transformed tumor cell line (DPX2) plated on 96-well microtiter plates. DPX2 cells harbor the human PXR gene (NR1I2) and a luciferase reporter gene linked to two promoters identified in the human CYP3A4 gene, namely XREM and PXRE. The cells are treated with six concentrations of compounds (0.15˜50 µM) and incubated for 24 hr. The number of viable cells will be determined and the reporter gene activity is assessed. Positive control: Rifampicin at 6 concentrations (0.1˜20 µM). % Emax relative to the maximum fold induction by 10 or 20 µM RIF is calculated for test compounds according to the following equation which adjusts for the DMSO background: % Emax=(Fold induction−1)/(Maximum fold induction by RIF−1)×100%.

The test system of another data set is HIV-IIIb. The data set is described as follows: Antiviral assay in MT4 cells. Conditions: Human immunodeficiency virus 1, IIIB, MT4, 120 h.
The nature of data set [1]: Cytotoxicity (CC50) in MT4 cells, CellTiter-Glo. Conditions: human.
Method: (§3) For the antiviral assay utilizing MT4 cells, 0.4 μL of 189× test concentration of 3-fold serially diluted compound in DMSO was added to 40 μL of cell growth medium (RPMI 1640, 10% FBS, 1% penicilline/Streptomycine, 1% L-Glutamine, 1% HEPES) in each well of 384-well assay plates (10 concentrations) in quidruplicate.
(§4) 1 mL aliquots of 2×10^6 MT4 cells are pre-infected for 1 and 3 hours respectively at 37° C. with 25 μL (MT4) or of either cell growth medium (mock-infected) or a fresh 1:250 dilution of an HIV-IIIb concentrated ABI stock (0.004 m.o.i. for MT4 cells). Infected and uninfected cells are diluted in cell growth medium and 35 μL of 2000 (for MT4) cells is added to each well of the assay plates.
(§5) Assay plates were then incubated in a 37° C. incubator. After 5 days of incubation, 25 μL of 2× concentrated CellTiter-Glo™ Reagent (catalog # G7573, Promega Biosciences, Inc., Madison, Wis.) was added to each well of the assay plate. Cell lysis was carried out by incubating at room temperature for 2-3 minutes, and then chemiluminescence was read using the Envision reader (PerkinElmer).
A further data set concerns the target T2, human PXR (NR1I2) (Homo sapiens, UniProt O75469).
T2 construct: expressed in transfected cells; host or cells: DPX2 (stably transformed tumor cell line)
T2 sequence (O75469 1-434): T1 sequence (O75469 1-434)
In words: Human PXR activation assay, luciferase reporter gene in DPX2 cells. Conditions: human, relative to maximum fold induction by 10 or 20 uM rifampicin. The protocol:
as §1, §2

[2] abbreviates: MT-4 cells infected with HIV-IIIb, 5 days incubation, read-out: EC50.

Like-named read-outs stand apart in the source and are kept apart here.

Method for HIV-IIIb: as §3, §4, §5

For `O=C(NCc1ccc(F)c(F)c1)c1cn2c(c(O)c1=O)C(=O)N1[C@@H]3CC[C@@H](C3)O[C@H]1C2` [Compound 18], the “% Emax” value on human PXR turned out to be 4.4%.
Take `C[C@@H](NC(=O)c1cn2c(c(O)c1=O)C(=O)N1[C@@H]3CC[C@@H](C3)O[C@H]1C2)c1ccc(F)cc1F` [Compound 11]: the concentration giving a half-maximal response (EC50) in the data set with HIV-IIIb (setting [2]) was 4.4 nM.
As for `O=C(NCc1ccc(F)c(C(F)(F)F)c1)c1cn2c(c(O)c1=O)C(=O)N1[C@@H]3CC[C@@H](C3)O[C@H]1C2` [Compound 25], the EC50 with HIV-IIIb (setting [2]) was found to be 17.9 nM. This molecule also displayed a half-maximal cytotoxic concentration (CC50) at 5 days in data set [1] of 7070 nM.
`O=C(NCc1ccc(F)cc1F)c1cn2c(c(O)c1=O)C(=O)N1[C@H]3CC[C@H](C3)O[C@@H]1C2` [Compound 2]: the EC50 in the data set with HIV-IIIb (setting [2]) came to 1.9 nM. For the same molecule, the CC50 at 5 days in data set [1] was 2960 nM. Also, the Emax at 24 hr, 15 µM at human PXR (NR1I2) amounted to 2.8%.
In the case of `O=C(NCc1ccc(F)cc1F)c1cn2c(c(O)c1=O)C(=O)N1C(C2)[N@@]2CC[C@@H]1C2` (stereo partly drawn) [Compound 4, (1 S,4R)—N-(2,4-difluorobenzyl)-7-hydroxy-6,8-dioxo-3,4,6,8,12,12a-hexahydro-2H-1,4-methanopyrido[1′,2′:4,5]pyrazino[1,2-a]pyrimidine-9-carboxamide], at human PXR, the “% Emax” value stood at 3.2%.
For the molecule `C[C@@H](NC(=O)c1cn2c(c(O)c1=O)C(=O)N1[C@H]3CC[C@H](C3)O[C@@H]1C2)c1ccc(F)cc1` [Compound 10], the Emax at 24 hr, 15 µM on human PXR (NR1I2) came out at 0.19%.
As for `O=C(NC1(c2ccc(F)cc2F)CC1)c1cn2c(c(O)c1=O)C(=O)N1C(C2)O[C@H]2CCC[C@@H]1C2` (stereo partly drawn) [Compound 28], the “% Emax” value at human PXR came to 6.1%.
As to `O=C(NCc1ccc(F)cc1F)c1cn2c(c(O)c1=O)C(=O)N1C(C2)[N@@]2CCC[C@@H]1C2` (stereo partly drawn) [Compound 20], the “% Emax” value on human PXR is listed as 2.4%.
In turn, `O=C(NCc1cc(F)cc(F)c1)c1cn2c(c(O)c1=O)C(=O)N1[C@@H]3CC[C@@H](C3)O[C@H]1C2` [Compound 24] came in with a concentration for a half-maximal effect (EC50) in the data set on HIV-IIIb of 3.4 nM. In addition, the CC50 at 5 days in data set [1] (MT4 cells, MT-4 cells, 5 days incubation, read-out: CC50) was 12600 nM.
Turning to `C[C@@H](NC(=O)c1cn2c(c(O)c1=O)C(=O)N1[C@H]3CC[C@H](C3)O[C@@H]1C2)c1ccc(F)cc1F` [Compound 12], the EC50 in the data set with HIV-IIIb (setting [2]) came to 5.4 nM. The midpoint of cytotoxicity in data set [1], the CC50 at 5 days, lay at 3230 nM.
On to `O=C(NCc1ccc(Cl)c(F)c1)c1cn2c(c(O)c1=O)C(=O)N1[C@@H]3CC[C@@H](C3)O[C@H]1C2` [Compound 26], for which the EC50 in the data set with HIV-IIIb (setting [2]) was 8 nM. Besides, in data set [1], the CC50 at 5 days came out at 11500 nM.
Regarding `O=C(N[C@@H](c1ccc(F)cc1F)C(F)(F)F)c1cn2c(c(O)c1=O)C(=O)N1C(C2)O[C@H]2CC[C@@H]1C2` (stereo partly drawn) [Compound 36], the EC50 in the data set with HIV-IIIb (setting [2]) turned out to be 3.5 nM. This molecule yielded a CC50 at 5 days in data set [1] of 13500 nM.
Consider `O=C(NCc1ccc(F)cc1F)c1cn2c(c(O)c1=O)C(=O)N1C(C2)O[C@@H]2CCC[C@H]1C2` (stereo partly drawn) [Compound 8], for which the “% Emax” value on human PXR was 6.6%.
On to `O=C(NCc1ccc(F)cc1F)c1cn2c(c(O)c1=O)C(=O)N1C(C2)O[C@H]2CCC[C@@H]1C2` (stereo partly drawn) [Compound 7], for which the “% Emax” value at human PXR is listed as 6.5%.
Consider `O=C(NC1(c2ccc(F)cc2F)CC1)c1cn2c(c(O)c1=O)C(=O)N1C(C2)O[C@@H]2CCC[C@H]1C2` (stereo partly drawn) [Compound 29], for which the “% Emax” value on human PXR was 3.2%.
For the molecule `O=C(NCc1ccc(F)cc1F)c1cn2c(c(O)c1=O)C(=O)N1C(C2)[N@]2CC[C@H]1C2` (stereo partly drawn) [Compound 6], in data set [1], half-maximal cytotoxicity (CC50 at 5 days) was put at 53200 nM.
Consider `O=C(NCc1ccccc1F)c1cn2c(c(O)c1=O)C(=O)N1[C@@H]3CC[C@@H](C3)O[C@H]1C2` [Compound 23], for which, in the data set with HIV-IIIb (setting [2]), the EC50 came to 1.8 nM. This molecule also displayed a CC50 at 5 days in data set [1] of 11500 nM.
As for `O=C(NCc1ccc(F)cc1F)c1cn2c(c(O)c1=O)C(=O)N1C(C2)[N@]2CCC[C@H]1C2` (stereo partly drawn) [Compound 19], the “% Emax” value on human PXR came to 1.5%.
As for `O=C(NCc1ccc(F)cc1F)c1cn2c(c(O)c1=O)C(=O)N1[C@@H]3CC[C@@H](C3)O[C@H]1C2` [Compound 3], in the data set on HIV-IIIb (setting [2]), the EC50 came out at 1.9 nM. Further, in data set [1], the 50% cytotoxic concentration (CC50) at 5 days is 36200 nM. This molecule also had an Emax at 24 hr, 15 µM on human PXR (NR1I2) of 5%.
As for `O=C(NC1(c2ccc(F)cc2F)CC1)c1cn2c(c(O)c1=O)C(=O)N1C(C2)O[C@H]2CC[C@@H]1C2` (stereo partly drawn) [Compound 27], in the data set on HIV-IIIb (setting [2]), the EC50 is 4 nM.
`C[C@H]1CO[C@@H]2Cn3cc(C(=O)NC4(c5ccc(F)cc5F)CC4)c(=O)c(O)c3C(=O)N12` [Compound 37, (3S,11aR)—N-(1-(2,4-difluorophenyl)cyclopropyl)-6-hydroxy-3-methyl-5,7-dioxo-2,3,5,7,11,11a-hexahydrooxazolo[3,2-a]pyrido[1,2-d]pyrazine-8-carboxamide]: at human PXR, the “% Emax” value was found to be 1.5%.
On human PXR (NR1I2), `C[C@@H](NC(=O)c1cn2c(c(O)c1=O)C(=O)N1[C@@H]3CC[C@@H](C3)O[C@H]1C2)c1ccc(F)cc1` [Compound 9] had an Emax at 24 hr, 15 µM of 0.07%.
The molecule `O=C(NC1(c2ccc(F)cc2F)CCCCC1)c1cn2c(c(O)c1=O)C(=O)N1C(C2)O[C@H]2CC[C@@H]1C2` (stereo partly drawn) [Compound 34] showed an EC50 in the data set on HIV-IIIb of 456 nM.
